In the kinase profiling compilation of Christmann-Franck et al. (2016):

Columns and labels:
Experiment in all cases: KINOMEscan competition binding
Details in all cases: compound 10.0 µM
CIT (human) = CIT (human) (UniProt O14578)
MAPK15 (human) = MAPK15 (human) (UniProt Q8TD08)
PAK3 (human) = PAK3 (human) (UniProt O75914)
PRKCE (human) = PRKCE (human) (UniProt Q02156)
SGK110 (human) = SGK110 (human) (UniProt P0C264)
PRKG1 (human) = PRKG1 (human) (UniProt Q13976)
CLK3 (human) = CLK3 (human) (UniProt P49761)
ULK3 (human) = ULK3 (human) (UniProt Q6PHR2)
NUAK2 (human) = NUAK2 (human) (UniProt Q9H093)
MAPK3 (human) = MAPK3 (human) (UniProt P27361)
MKNK2 (human) = MKNK2 (human) (UniProt Q9HBH9)
PAK7 (human) = PAK7 (human) (UniProt Q9P286)
FLT1 (human) = FLT1 (human) (UniProt P17948)
Chain of FLT1 (human) (P17948 whole entry, looked up): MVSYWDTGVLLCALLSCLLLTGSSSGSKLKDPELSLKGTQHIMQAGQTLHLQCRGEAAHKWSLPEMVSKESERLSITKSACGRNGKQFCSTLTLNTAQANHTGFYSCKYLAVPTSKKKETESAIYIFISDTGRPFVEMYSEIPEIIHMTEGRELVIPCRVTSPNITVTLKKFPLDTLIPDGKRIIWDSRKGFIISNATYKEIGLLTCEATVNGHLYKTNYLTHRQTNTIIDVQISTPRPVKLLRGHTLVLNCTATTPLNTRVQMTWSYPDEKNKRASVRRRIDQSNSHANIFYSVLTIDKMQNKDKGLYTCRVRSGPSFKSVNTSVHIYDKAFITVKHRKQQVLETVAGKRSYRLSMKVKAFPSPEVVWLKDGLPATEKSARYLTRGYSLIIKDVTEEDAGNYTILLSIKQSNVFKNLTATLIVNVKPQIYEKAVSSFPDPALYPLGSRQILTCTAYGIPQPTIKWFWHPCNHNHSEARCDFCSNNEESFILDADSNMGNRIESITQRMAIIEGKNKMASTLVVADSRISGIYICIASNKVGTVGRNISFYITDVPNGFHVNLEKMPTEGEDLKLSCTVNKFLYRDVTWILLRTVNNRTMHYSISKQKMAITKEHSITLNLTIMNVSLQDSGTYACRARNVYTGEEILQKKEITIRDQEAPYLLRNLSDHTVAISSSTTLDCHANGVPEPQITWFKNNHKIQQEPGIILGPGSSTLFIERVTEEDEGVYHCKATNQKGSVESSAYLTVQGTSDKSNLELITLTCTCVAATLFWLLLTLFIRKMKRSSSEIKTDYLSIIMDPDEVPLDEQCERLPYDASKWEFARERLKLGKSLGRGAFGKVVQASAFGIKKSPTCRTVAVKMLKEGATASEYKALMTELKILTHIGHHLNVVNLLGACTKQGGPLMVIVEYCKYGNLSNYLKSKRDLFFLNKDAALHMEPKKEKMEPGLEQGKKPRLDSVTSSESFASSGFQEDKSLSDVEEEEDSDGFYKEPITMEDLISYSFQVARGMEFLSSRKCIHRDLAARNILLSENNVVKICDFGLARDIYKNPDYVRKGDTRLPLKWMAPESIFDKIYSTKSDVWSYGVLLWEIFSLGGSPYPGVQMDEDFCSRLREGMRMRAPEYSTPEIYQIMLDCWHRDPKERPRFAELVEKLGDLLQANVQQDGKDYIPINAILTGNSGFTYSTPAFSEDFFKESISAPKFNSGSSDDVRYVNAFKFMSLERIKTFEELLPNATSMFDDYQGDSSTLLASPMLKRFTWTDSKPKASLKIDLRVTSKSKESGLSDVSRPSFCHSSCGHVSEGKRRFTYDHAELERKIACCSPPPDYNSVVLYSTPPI

PAK4 (human) = PAK4 (human) (UniProt O96013)
PDGFRA (human) = PDGFRA (human) (UniProt P16234)
SRMS (human) = SRMS (human) (UniProt Q9H3Y6)
Chain of SRMS (human) (Q9H3Y6 whole entry, looked up): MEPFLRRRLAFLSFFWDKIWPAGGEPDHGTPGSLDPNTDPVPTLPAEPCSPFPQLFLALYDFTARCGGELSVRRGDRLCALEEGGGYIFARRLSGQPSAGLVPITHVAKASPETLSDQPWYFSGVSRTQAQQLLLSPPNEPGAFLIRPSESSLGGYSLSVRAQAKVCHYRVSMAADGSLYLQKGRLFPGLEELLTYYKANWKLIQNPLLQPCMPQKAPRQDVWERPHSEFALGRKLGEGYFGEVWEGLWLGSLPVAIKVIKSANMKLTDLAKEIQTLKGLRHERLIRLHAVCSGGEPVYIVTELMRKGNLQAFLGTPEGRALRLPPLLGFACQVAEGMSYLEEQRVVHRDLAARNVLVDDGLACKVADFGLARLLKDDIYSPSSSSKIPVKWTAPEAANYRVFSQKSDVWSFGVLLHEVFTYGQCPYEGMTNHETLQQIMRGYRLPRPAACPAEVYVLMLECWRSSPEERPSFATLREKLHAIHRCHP

BTK (human) = BTK (human) (UniProt Q06187)
ADCK3 (human) = ADCK3 (human) (UniProt Q8NI60)
Chain of ADCK3 (human) (Q8NI60 whole entry, looked up): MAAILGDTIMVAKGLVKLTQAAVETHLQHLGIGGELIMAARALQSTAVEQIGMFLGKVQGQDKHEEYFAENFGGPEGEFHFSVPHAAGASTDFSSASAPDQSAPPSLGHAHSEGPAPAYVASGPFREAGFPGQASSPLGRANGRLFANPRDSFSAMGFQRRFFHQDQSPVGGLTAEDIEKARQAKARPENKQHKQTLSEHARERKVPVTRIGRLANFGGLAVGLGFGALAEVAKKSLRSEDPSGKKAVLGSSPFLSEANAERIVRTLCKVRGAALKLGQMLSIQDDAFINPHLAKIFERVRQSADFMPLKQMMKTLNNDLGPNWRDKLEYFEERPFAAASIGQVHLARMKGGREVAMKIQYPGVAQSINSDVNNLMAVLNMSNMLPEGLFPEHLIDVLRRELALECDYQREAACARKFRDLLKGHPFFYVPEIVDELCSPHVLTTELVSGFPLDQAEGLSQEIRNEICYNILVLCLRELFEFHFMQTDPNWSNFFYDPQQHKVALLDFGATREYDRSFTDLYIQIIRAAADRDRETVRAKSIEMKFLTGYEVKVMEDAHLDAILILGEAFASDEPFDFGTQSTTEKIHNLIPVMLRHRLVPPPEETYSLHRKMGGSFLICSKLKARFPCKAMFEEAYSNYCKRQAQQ

TIE1 (human) = TIE1 (human) (UniProt P35590)
Chain of TIE1 (human) (P35590 whole entry, looked up): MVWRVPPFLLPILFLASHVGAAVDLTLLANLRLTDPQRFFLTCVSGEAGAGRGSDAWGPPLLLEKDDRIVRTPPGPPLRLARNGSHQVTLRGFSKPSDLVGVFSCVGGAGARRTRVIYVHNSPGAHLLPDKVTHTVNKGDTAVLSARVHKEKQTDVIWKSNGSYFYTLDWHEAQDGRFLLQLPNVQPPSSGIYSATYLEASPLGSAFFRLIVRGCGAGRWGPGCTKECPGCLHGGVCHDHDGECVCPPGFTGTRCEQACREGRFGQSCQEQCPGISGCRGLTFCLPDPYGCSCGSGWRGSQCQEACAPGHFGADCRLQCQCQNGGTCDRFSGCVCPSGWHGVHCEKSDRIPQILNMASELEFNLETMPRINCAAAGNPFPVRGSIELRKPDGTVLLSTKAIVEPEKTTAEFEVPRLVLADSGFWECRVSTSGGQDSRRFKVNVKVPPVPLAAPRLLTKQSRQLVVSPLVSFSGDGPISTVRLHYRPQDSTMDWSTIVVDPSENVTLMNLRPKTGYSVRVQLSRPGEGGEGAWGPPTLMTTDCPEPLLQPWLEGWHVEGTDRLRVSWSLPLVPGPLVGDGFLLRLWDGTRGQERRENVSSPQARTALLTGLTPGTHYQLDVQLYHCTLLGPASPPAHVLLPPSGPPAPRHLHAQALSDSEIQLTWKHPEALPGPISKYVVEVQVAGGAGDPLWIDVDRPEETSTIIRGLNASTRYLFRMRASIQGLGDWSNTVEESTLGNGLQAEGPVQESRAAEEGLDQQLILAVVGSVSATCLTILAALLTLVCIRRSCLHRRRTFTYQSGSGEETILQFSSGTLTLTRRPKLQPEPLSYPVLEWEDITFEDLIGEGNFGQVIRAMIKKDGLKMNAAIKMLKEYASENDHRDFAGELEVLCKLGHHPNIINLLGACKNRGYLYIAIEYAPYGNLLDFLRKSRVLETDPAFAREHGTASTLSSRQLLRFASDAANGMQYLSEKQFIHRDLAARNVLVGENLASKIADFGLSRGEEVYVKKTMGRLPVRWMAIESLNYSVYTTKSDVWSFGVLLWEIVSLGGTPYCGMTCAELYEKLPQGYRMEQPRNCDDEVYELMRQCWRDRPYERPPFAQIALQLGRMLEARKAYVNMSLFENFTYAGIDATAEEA

TLK2 (human) = TLK2 (human) (UniProt Q86UE8)
Chain of TLK2 (human) (Q86UE8 whole entry, looked up): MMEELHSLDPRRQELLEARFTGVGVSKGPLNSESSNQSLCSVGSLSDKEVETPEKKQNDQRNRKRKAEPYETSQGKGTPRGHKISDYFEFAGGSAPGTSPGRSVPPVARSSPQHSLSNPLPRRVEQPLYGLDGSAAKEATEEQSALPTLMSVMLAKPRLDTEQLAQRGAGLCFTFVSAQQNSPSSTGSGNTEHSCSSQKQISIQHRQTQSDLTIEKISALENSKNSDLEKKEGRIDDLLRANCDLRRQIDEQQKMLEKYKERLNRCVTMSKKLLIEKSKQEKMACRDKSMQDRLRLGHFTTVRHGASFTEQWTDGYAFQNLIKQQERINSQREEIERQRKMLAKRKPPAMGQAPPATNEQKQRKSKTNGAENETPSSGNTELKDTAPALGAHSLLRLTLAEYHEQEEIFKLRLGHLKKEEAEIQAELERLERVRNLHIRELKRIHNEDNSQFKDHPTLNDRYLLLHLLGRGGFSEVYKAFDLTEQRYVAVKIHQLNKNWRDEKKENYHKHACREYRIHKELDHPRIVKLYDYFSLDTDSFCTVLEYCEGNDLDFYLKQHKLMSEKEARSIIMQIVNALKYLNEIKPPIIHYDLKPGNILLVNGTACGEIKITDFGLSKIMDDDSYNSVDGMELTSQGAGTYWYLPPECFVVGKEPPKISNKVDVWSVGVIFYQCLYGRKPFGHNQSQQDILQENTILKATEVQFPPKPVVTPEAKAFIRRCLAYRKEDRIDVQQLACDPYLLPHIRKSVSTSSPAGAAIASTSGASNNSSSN

LATS2 (human) = LATS2 (human) (UniProt Q9NRM7)
PRKD3 (human) = PRKD3 (human) (UniProt O94806)
EPHA8 (human) = EPHA8 (human) (UniProt P29322)
CAMK2G (human) = CAMK2G (human) (UniProt Q13555)
ULK2 (human) = ULK2 (human) (UniProt Q8IYT8)
ACVRL1 (human) = ACVRL1 (human) (UniProt P37023)
TAOK3 (human) = TAOK3 (human) (UniProt Q9H2K8)
CAMK1G (human) = CAMK1G (human) (UniProt Q96NX5)
MAPK12 (human) = MAPK12 (human) (UniProt P53778)
MAP4K5 (human) = MAP4K5 (human) (UniProt Q9Y4K4)
PTK2B (human) = PTK2B (human) (UniProt Q14289)
AKT2 (human) = AKT2 (human) (UniProt P31751)

Chain of MAPK15 (human) (Q8TD08 whole entry, looked up): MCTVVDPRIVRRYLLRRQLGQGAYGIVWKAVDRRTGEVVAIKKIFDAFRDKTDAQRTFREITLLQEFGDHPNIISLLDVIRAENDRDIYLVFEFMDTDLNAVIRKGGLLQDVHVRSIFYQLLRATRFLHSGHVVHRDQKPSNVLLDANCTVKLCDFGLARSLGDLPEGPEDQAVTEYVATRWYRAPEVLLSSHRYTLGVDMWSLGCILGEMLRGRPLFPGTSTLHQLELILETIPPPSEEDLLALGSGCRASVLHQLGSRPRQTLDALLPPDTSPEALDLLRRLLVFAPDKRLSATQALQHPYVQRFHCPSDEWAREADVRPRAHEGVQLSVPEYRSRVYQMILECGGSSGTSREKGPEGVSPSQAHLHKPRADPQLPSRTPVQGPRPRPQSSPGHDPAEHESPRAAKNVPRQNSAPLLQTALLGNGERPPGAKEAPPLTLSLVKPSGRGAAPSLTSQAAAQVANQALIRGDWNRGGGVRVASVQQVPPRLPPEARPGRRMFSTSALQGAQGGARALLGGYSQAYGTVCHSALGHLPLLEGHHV

Cc1n[nH]c2ccc(-c3cncc(OC[C@@H](N)Cc4c[nH]c5ccccc45)c3)cc12
kinase still bound, per cent of control (CIT (human)): 0.2%
kinase still bound, per cent of control (MAPK15 (human)): 0%
kinase still bound, per cent of control (PAK3 (human)): 100%
kinase still bound, per cent of control (PRKCE (human)): 0%
kinase still bound, per cent of control (SGK110 (human)): 100%
kinase still bound, per cent of control (PRKG1 (human)): 0.65%
kinase still bound, per cent of control (CLK3 (human)): 0%
kinase still bound, per cent of control (ULK3 (human)): 100%
kinase still bound, per cent of control (NUAK2 (human)): 1.9%
kinase still bound, per cent of control (MAPK3 (human)): 100%
kinase still bound, per cent of control (MKNK2 (human)): 13%
kinase still bound, per cent of control (PAK7 (human)): 16%
kinase still bound, per cent of control (FLT1 (human)): 100%
kinase still bound, per cent of control (PAK4 (human)): 13%
kinase still bound, per cent of control (PDGFRA (human)): 100%
kinase still bound, per cent of control (SRMS (human)): 100%
kinase still bound, per cent of control (BTK (human)): 100%
kinase still bound, per cent of control (ADCK3 (human)): 100%
kinase still bound, per cent of control (TIE1 (human)): 31%
kinase still bound, per cent of control (TLK2 (human)): 100%
kinase still bound, per cent of control (LATS2 (human)): 0%
kinase still bound, per cent of control (PRKD3 (human)): 1.6%
kinase still bound, per cent of control (EPHA8 (human)): 100%
kinase still bound, per cent of control (CAMK2G (human)): 5.4%
kinase still bound, per cent of control (ULK2 (human)): 12%
kinase still bound, per cent of control (ACVRL1 (human)): 100%
kinase still bound, per cent of control (TAOK3 (human)): 0.1%
kinase still bound, per cent of control (CAMK1G (human)): 100%

CCN(CC)CCCCNc1ncc2cc(-c3cc(OC)cc(OC)c3)c(NC(=O)NC(C)(C)C)nc2n1
kinase still bound, per cent of control (CIT (human)): 100%
kinase still bound, per cent of control (MAPK15 (human)): 100%
kinase still bound, per cent of control (PAK3 (human)): 100%
kinase still bound, per cent of control (PRKCE (human)): 100%
kinase still bound, per cent of control (PRKG1 (human)): 100%
kinase still bound, per cent of control (CLK3 (human)): 100%
kinase still bound, per cent of control (NUAK2 (human)): 100%
kinase still bound, per cent of control (MAPK12 (human)): 100%
kinase still bound, per cent of control (MAPK3 (human)): 100%
kinase still bound, per cent of control (MKNK2 (human)): 100%
kinase still bound, per cent of control (PAK7 (human)): 100%
kinase still bound, per cent of control (FLT1 (human)): 8%
kinase still bound, per cent of control (PAK4 (human)): 100%
kinase still bound, per cent of control (MAP4K5 (human)): 100%
kinase still bound, per cent of control (PTK2B (human)): 100%
kinase still bound, per cent of control (PDGFRA (human)): 100%
kinase still bound, per cent of control (SRMS (human)): 100%
kinase still bound, per cent of control (AKT2 (human)): 100%
kinase still bound, per cent of control (BTK (human)): 100%
kinase still bound, per cent of control (ADCK3 (human)): 100%
kinase still bound, per cent of control (TIE1 (human)): 12%
kinase still bound, per cent of control (TLK2 (human)): 100%
kinase still bound, per cent of control (LATS2 (human)): 100%
kinase still bound, per cent of control (PRKD3 (human)): 100%
kinase still bound, per cent of control (EPHA8 (human)): 100%
kinase still bound, per cent of control (CAMK2G (human)): 100%
kinase still bound, per cent of control (ACVRL1 (human)): 100%
kinase still bound, per cent of control (CAMK1G (human)): 100%

CNC(=O)c1ccc(Nc2cc(Nc3ccccc3S(=O)(=O)C(C)C)c3cc[nH]c3n2)nc1
kinase still bound, per cent of control (CIT (human)): 100%
kinase still bound, per cent of control (MAPK15 (human)): 8%
kinase still bound, per cent of control (PAK3 (human)): 1%
kinase still bound, per cent of control (PRKCE (human)): 18%
kinase still bound, per cent of control (SGK110 (human)): 7.4%
kinase still bound, per cent of control (PRKG1 (human)): 100%
kinase still bound, per cent of control (CLK3 (human)): 2.8%
kinase still bound, per cent of control (ULK3 (human)): 3.7%
kinase still bound, per cent of control (NUAK2 (human)): 0.4%
kinase still bound, per cent of control (MAPK12 (human)): 100%
kinase still bound, per cent of control (MAPK3 (human)): 100%
kinase still bound, per cent of control (MKNK2 (human)): 100%
kinase still bound, per cent of control (PAK7 (human)): 100%
kinase still bound, per cent of control (FLT1 (human)): 100%
kinase still bound, per cent of control (PAK4 (human)): 18%
kinase still bound, per cent of control (MAP4K5 (human)): 1.8%
kinase still bound, per cent of control (PTK2B (human)): 0.1%
kinase still bound, per cent of control (PDGFRA (human)): 100%
kinase still bound, per cent of control (SRMS (human)): 100%
kinase still bound, per cent of control (AKT2 (human)): 100%
kinase still bound, per cent of control (BTK (human)): 0.65%
kinase still bound, per cent of control (ADCK3 (human)): 100%
kinase still bound, per cent of control (TIE1 (human)): 0.2%
kinase still bound, per cent of control (TLK2 (human)): 100%
kinase still bound, per cent of control (LATS2 (human)): 100%
kinase still bound, per cent of control (PRKD3 (human)): 100%
kinase still bound, per cent of control (EPHA8 (human)): 100%
kinase still bound, per cent of control (CAMK2G (human)): 100%
kinase still bound, per cent of control (ULK2 (human)): 9.1%
kinase still bound, per cent of control (ACVRL1 (human)): 100%
kinase still bound, per cent of control (TAOK3 (human)): 2%
kinase still bound, per cent of control (CAMK1G (human)): 100%
